Laboratory results reported in patent US7795446B2, “Benzimidazole derivatives useful as selective androgen receptor modulators (SARMS)” (priority 2004, dated 2010).

What follows are molecules tested on ventral prostate and seminal vesicle weights, testosterone propionate-treated castrated male Sprague Dawley rats (assay: Ventral Prostate and Seminal Vesicle Weight In Vivo Assay). Details: percent inhibition of testosterone-enhanced prostate weight; immature castrated male rats; test compound usually orally 40 mg/kg (2 mg/day) once daily for five days plus testosterone propionate 2 mg/kg s.c.
Method: Ventral Prostate and Seminal Vesicle Weight In Vivo Assay
Immature (approximately 50 g) castrated male Sprague Dawley rats (Charles River) were treated once daily for five days with test compound (usually given orally at 40 mg/kg in a volume of 0.3 mL, in 30% cyclodextrin or 0.5% methylcellulose vehicle) and with testosterone propionate (given subcutaneously by injection at the nape of the neck at 2 mg/kg, in a volume of 0.1 mL in sesame oil). On the sixth day, the rats were euthanized by asphyxiation in carbon dioxide. Ventral prosatates and seminal vesicles were removed and their wet weights determined. Test compound activity was determined as the percent inhibition of testosterone-enhanced tissue weights, with a vehicle-treated control group set to zero percent and a testosterone alone-treated control group set to 100%.
Representative compounds of the present invention were tested according to the procedure described, with results as listed in Table 7 below. A test compound is listed as “active” if the non weight adjusted prostate weight was ≦40 mg or the % Inhibition prostate weight, body weight adjusted was ≧40%@ 2 mg/day dosage. ID50's, if determined, of ≦15 mg/day also indicated an “active” compound.
For “3,3,3-Trifluoro-2-methoxy-2-phenyl-propionic acid 1-(5,6-dichloro-1H-benzamidazol-2-yl)-2,2,2-trifluoro-1-methyl-ethyl ester [Compound 107]”, the Activity was “active”.
For CSCC(C)(O)c1nc2cc(Cl)c(Cl)cc2n1C (stereo not shown) [Compound 12], the Activity was “active”.
For Cn1c(C(C)(O)CSCc2ccccc2)nc2cc(Cl)c(Cl)cc21 (stereo not shown) [Compound 23], the Activity was “active”.
With O=[N+]([O-])c1cc2nc(C(O)C(F)(F)F)[nH]c2cc1[N+](=O)[O-] (stereo not shown) [Compound 155, 1-(5,6-Dinitro-1H-benzoimidazol-2-yl-)2,2,2-trifluoro-ethanol] the Activity was “inactive”.
